Measured values: US11439708B2, “Nanotube trans-membrane channels mimicking biological porins” (LAWRENCE LIVERMORE NATIONAL SECURITY, LLC, priority 2014, dated 2022)

Experiments:
[1] = Single channel recordings of conductance in supported lipid bilayer; assay type: biochemical; conditions: 1 M KCl, transmembrane potential 75 mV, positive control
[2] = parameters: unit not given here; conditions: literature value (ref 30); cited from earlier work

## gramicidin A
[1]
  conductance of Gramicidin channels: 0.058±0.008 nS
[2]
  reported conductance of gramicidin: 0.0459±0.005
